In patent US6197826A, “α-(2-hydroxyphenyl) nitrone compounds, pharmaceutical compositions containing the same and methods for treating inflammation” (Centaur Pharmaceuticals, Inc., priority 1999, dated 2001):

What was measured:
[1] = test system: cyclooxygenase 1 (COX-1); conditions: 300 μM; COX-1 from ram seminal vesicles
Method: (§1) In this experiment, nitrones of formula I were tested to determine if they inhibit the enzymes cyclooxygenase 1 (COX-1) and cyclooxygenase 2 (COX-2). The inhibition of COX-1 was measured by incubating arachidonic acid with COX-1 dervied from ram seminal vesicles. The inhibition of COX-2 was measured by incubation of arachidonic acid with COX-2 derived from sheep placenta. These assays are further described in Evans et al., Biochem. Pharmacol., 36:2035, 1987. In each assay, the formation of prostaglandin E2 (PGE2) was measured by spectrophotometric quantitation of malondialdehyde. The compounds to be tested were added to incubation solutions at a concentration of 300 μM.

[2] = test system: cyclooxygenase 2 (COX-2); conditions: 300 μM; COX-2 from sheep placenta
Method: as §1

For `COc1ccc2c(c1)c(CC(=O)O)c(C)n2C(=O)c1ccc(Cl)cc1` [indomethacin], the “inhibition of COX-1” value [1] was “completely inhibits” and the “inhibition of COX-2” value [2] was “completely inhibits”.
